In patent US7569563B2, “Substituted quinolones II” (AiCuris GmbH & Co. HK, priority 2005, dated 2009):
Structures can show the parent of a compound that is named as a salt.

Tests used:
HCMV = assay: Anti-HCMV (anti-human cytomegalovirus) cytopathogenicity test; assay type: cell-based; details: for EC50: Human betaherpesvirus 5, 144 h, concentration inhibiting CPE by 50% vs untreated virus control, HCMV-infected NHDF cells, M.O.I. 0.001-0.002, 6 days; for SI HCMV (selectivity index): SI = CC50 (NHDF)/EC50 (HCMV)
Description: Anti-HCMV (Anti-Human Cytomegalovirus) Cytopathogenicity Tests The test compounds are employed as 50 millimolar (mM) solutions in dimethyl sulfoxide (DMSO). Ganciclovir®, Foscamet® and Cidofovir® are used as reference compounds. After the addition of in each case 2 μl of the 50, 5, 0.5 and 0.05 mM DMSO stock solutions to 98 μl portions of cell culture medium in row […] for duplicate determinations, 1:2 dilutions are carried out with 50 μl portions of medium up to row 1 l of the 96-well plate. The wells in rows 1 and 12 each contain 50 μl of medium. 150 μl of a suspension of 1×10^4 cells (human prepuce fibroblasts [NHDF]) are then pipetted into each of the wells (row I=cell control) and, in rows 2-12, a mixture of HCMV-infected and uninfected NHDF cells (M.O.I.=0.001-0.002), i.e. 1-2 infected cells per 1000 uninfected cells. Row 12 (without substance) serves as virus control. The final test concentrations are 250-0.0005 μM. The plates are incubated at 37° C./5% CO2 for 6 days, i.e. until all the cells are infected in the virus controls (100% cytopathogenic effect [CPE]). The wells are then fixed and stained by the addition of a mixture of formalin and Giemsa's dye (30 minutes), washed with double-distilled water and dried in a drying oven at 50° C. The plates are then assessed visually using an overhead microscope (plaque multiplier from Technomara). The following data can be acquired from the test plates: EC50 (HCMV)=substance concentration in μM which inhibits the CPE (cytopathic effect) by 50% compared with the untreated virus control; SI (selectivity index)=CC50 (NHDF)/EC50 (HCMV).

[1] = Cytostatic effects on NHDF cells in the anti-HCMV cytopathogenicity test; assay type: cell-based; details: human, human prepuce fibroblasts (NHDF cells); substance concentration at which no visible cytostatic effects on NHDF cells are evident vs untreated cell control; 6 days incubation
Description: Anti-HCMV (Anti-Human Cytomegalovirus) Cytopathogenicity Tests The test compounds are employed as 50 millimolar (mM) solutions in dimethyl sulfoxide (DMSO). Ganciclovir®, Foscamet® and Cidofovir® are used as reference compounds. After the addition of in each case 2 μl of the 50, 5, 0.5 and 0.05 mM DMSO stock solutions to 98 μl portions of cell culture medium in row […] for duplicate determinations, 1:2 dilutions are carried out with 50 μl portions of medium up to row 1 l of the 96-well plate. The wells in rows 1 and 12 each contain 50 μl of medium. 150 μl of a suspension of 1×10^4 cells (human prepuce fibroblasts [NHDF]) are then pipetted into each of the wells (row I=cell control) and, in rows 2-12, a mixture of HCMV-infected and uninfected NHDF cells (M.O.I.=0.001-0.002), i.e. 1-2 infected cells per 1000 uninfected cells. Row 12 (without substance) serves as virus control. The final test concentrations are 250-0.0005 μM. The plates are incubated at 37° C./5% CO2 for 6 days, i.e. until all the cells are infected in the virus controls (100% cytopathogenic effect [CPE]). The wells are then fixed and stained by the addition of a mixture of formalin and Giemsa's dye (30 minutes), washed with double-distilled water and dried in a drying oven at 50° C. The plates are then assessed visually using an overhead microscope (plaque multiplier from Technomara). The following data can be acquired from the test plates: CC50 (NHDF)=substance concentration in μM at which no visible cytostatic effects on the cells are evident compared with the untreated cell control;

| EC50 (HCMV) [µM] | Structure (SMILES) | SI HCMV (selectivity index) (HCMV) | CC50 at 6 days [1] [µM] |
| --- | --- | --- | --- |
| 0.019 | CCOC(=O)CN1[C@H](C)CN(c2c(F)cc3c(=O)c(C(=O)NCc4ccc(Cl)cc4Cl)cn(CC(F)(F)F)c3c2OC)C[C@@H]1C [Example 1, Ethyl{(2RS,6SR)-4-[3-{[(2,4-dichlorobenzyl)amino]carbonyl}-6-fluoro-8-methoxy-4-oxo-1-(2,2,2-trifluoroethyl)-1,4-dihydroquinolin-7-yl]-2,6-dimethylpiperazin-1-yl}ethanoate hydroformate] | 579 | 11 |
| 0.0023 | COc1c(N2C[C@@H](C)N(CC(=O)O)[C@@H](C)C2)c(F)cc2c(=O)c(C(=O)NCc3ccc(Cl)cc3Cl)cn(CC(F)(F)F)c12 [Example 28, {(2RS,6SR)-4-[3-{[(2,4-Dichlorobenzyl)amino]carbonyl}-6-fluoro-8-methoxy-4-oxo-1-(2,2,2-trifluoroethyl)-1,4-dihydroquinolin-7-yl]-2,6-dimethylpiperazin-1-yl}ethanoic acid hydroformate] | 8032 | 18 |
| 0.01 | COc1c(N2C[C@@H](C)N(CC(=O)O)[C@@H](C)C2)c(F)cc2c(=O)c(C(=O)NCc3ccc(Cl)cc3Cl)cn(C3CC3)c12 [Example 29, 4-[3-{1-Cyclopropyl-[(2,4-dichlorobenzyl)amino]carbonyl}-1-fluoro-8-methoxy-4-oxo-1,4-dihydroquinolin-7-yl]-(2RS,6SR)-2,6-dimethylpiperazin-1-yl}ethanoic acid hydrochloride] | 4700 | 47 |
| 0.008 | COc1c(N2C[C@@H](C)N(CC(=O)O)[C@@H](C)C2)c(F)cc2c(=O)c(C(=O)NCc3ccc(Cl)cc3Cl)cn(CCF)c12 [Example 30] | 5875 | 47 |
| 0.005 | COc1c(N2C[C@@H](C)N(CC(=O)O)[C@@H](C)C2)c(F)cc2c(=O)c(C(=O)NCc3ccc(Cl)cc3C)cn([C@H]3C[C@H]3F)c12 [Example 36] | 6402 | 24 |
| 0.018 | COc1c(N2C[C@@H](C)N(C(C)C(=O)O)[C@@H](C)C2)c(F)cc2c(=O)c(C(=O)NCc3ccc(Cl)cc3Cl)cn(C3CC3)c12 (stereo partly drawn) [Example 49] | 5222 | 94 |
